Consider twelve compounds from US12662451B2, “Chemical compounds and uses thereof” (GLAXOSMITHKLINE INTELLECTUAL PROPERTY (NO.4) LIMITED, priority 2023, dated 2026).

The test system of series [1] is SW48 human colorectal cancer cells (MSI-H cancer cells). The series can be described thus: SW48 cell viability, CellTiter-Glo, 120 hours (Example B). The note with it: Homo sapiens.
Series [2] concerns SW48 human colorectal cancer cells. The series can be described thus: Calculated free drug potency in SW48 cell assay, corrected with media free fraction (Example C). It counts as cell-based. To be noted: Homo sapiens, SW48, SW48 pCC50 corrected with measured free fraction in cell assay media. The gist of the method:
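Compound spiked at nominal 1 μM into cell assay medium and dialysed against PBS (100 mM sodium phosphate, 150 mM NaCl, pH 7.4) by rapid equilibrium dialysis, 4 h, 37 °C, shaking. Percent unbound from LC-MS/MS peak area ratios (240 min vs 0 min); cell assay concentrations corrected by this free fraction.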

Series [3] has as its target T1, recombinant full-length WRN protein (1-1432) (Homo sapiens, UniProt Q14191).
T1 construct: recombinant full-length WRN protein (1-1432)
The series can be described thus: WRN unwinding activity, fluorogenic 384-well assay (Example A). To be noted: WRN unwinding activity, 4 hr; Table 2; read-out: 4 hr UNW pIC50 (converted). Type of series: biochemical. The gist of the method:
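200 pM enzyme (2× stock) preincubated with compound 4 h at ambient temperature, then 200 μM ATP and 12 nM quenched TAMRA-labelled dsDNA (2× stocks) added for 60 min; EDTA-quenched. Buffer 25 mM Tris pH 8.0, 5 mM NaCl, 2 mM MgCl2. Fluorescence at 525/598 nm; pIC50 from four-parameter fit.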

Series [4] is described as follows: Cell culture media unbound percentage and stability by rapid equilibrium dialysis (Example C). It counts as in vitro ADME. The note with it: bovine, cell assay medium (RPMI-1640 with 10% fetal bovine serum), pH 7.4, rapid equilibrium dialysis, 4 hours at 37° C., read-out: Cell Culture Media Binding (% unbound). The gist of the method:
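Compound spiked into cell culture medium at nominal 1 μM and dialysed against PBS (100 mM sodium phosphate + 150 mM NaCl, pH 7.4) by rapid equilibrium dialysis, triplicate, 4 h at 37° C with shaking. LC-MS/MS peak area ratios gave percent unbound (receiver/donor) and percent stability (240 min vs 0 min).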
Background: Equilibrium dialysis compares concentrations on both sides of a semipermeable membrane.

Where [5] appears, read: SW48, 120 h, read-out: SW48 pCC50, SW48 cell viability, 120 hours incubation (converted), Table 2.
Setting [6] is: SW48, read-out: SW48 pCC50, measured potency from Example B, as repeated in Table 3 (converted).

Like-named read-outs stand apart in the source and are kept apart here.

T1 sequence (Q14191 whole entry): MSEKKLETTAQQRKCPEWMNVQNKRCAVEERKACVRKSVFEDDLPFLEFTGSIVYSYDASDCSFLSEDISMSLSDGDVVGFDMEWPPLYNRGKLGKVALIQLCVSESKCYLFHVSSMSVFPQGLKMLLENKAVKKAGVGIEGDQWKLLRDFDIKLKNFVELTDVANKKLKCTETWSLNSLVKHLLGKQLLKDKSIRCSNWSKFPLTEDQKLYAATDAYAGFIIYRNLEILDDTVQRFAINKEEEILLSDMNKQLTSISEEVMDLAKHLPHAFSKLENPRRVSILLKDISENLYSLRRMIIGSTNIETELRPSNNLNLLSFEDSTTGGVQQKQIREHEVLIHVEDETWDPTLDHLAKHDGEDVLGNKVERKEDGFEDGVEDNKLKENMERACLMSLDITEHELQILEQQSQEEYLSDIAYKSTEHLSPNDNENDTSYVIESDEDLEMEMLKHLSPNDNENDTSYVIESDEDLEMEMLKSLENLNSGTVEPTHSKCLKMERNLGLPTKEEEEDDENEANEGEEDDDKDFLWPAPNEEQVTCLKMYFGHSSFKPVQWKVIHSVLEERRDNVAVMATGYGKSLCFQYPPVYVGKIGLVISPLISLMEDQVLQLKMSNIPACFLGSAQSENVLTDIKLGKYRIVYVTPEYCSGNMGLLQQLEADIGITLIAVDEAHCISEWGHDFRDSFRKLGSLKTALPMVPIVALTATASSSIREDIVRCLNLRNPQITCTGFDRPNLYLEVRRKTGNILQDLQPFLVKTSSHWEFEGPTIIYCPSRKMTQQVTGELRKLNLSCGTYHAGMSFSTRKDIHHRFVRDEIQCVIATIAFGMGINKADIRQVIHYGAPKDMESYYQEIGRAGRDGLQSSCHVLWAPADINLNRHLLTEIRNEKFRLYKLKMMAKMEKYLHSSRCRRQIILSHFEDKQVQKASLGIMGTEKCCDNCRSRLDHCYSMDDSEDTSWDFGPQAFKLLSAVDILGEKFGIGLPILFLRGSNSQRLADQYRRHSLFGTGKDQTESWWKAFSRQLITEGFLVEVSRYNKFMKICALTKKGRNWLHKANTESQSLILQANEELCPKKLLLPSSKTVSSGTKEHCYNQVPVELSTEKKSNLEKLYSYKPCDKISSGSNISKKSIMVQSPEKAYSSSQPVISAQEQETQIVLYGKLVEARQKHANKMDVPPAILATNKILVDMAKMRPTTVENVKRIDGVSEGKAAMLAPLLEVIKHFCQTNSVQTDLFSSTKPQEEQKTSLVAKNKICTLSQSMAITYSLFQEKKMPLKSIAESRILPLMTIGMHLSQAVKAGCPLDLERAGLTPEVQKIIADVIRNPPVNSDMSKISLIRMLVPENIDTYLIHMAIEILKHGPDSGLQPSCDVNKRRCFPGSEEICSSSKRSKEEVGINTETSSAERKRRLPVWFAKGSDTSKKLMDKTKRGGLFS

With `Cc1nc2cc(S(=O)(=O)N(C)c3ccc([C@H]4C[C@@H](N5CCC[C@H](F)C5)C[C@@H](C(=O)Nc5ccc(C(F)(F)F)cc5F)[C@@H]4C(=O)O)cc3)ccc2n1C` (stereo in doubt) [Example 350, rel-(1R*,2R*,4R*,6S*)-2-((2-fluoro-4-(trifluoromethyl)phenyl)carbamoyl)-4-((S)-3-fluoropiperidin-1-yl)-6-(4-((, 1,2-trimethyl-1H-benzo[d]imidazole)-5-sulfonamido)phenyl)cyclohexane-1-carboxylic acid], the CC50 is 0.0631 µM in series [1] (setting [5]), 0.0631 µM in series [1] (setting [6]) and 0.0138 µM in series [2]. In addition, in series [3], the IC50 is 0.00158 µM. For the same compound, in series [4], the fraction unbound at 4 h, 1 µM was found to be 0.218.

In the case of `Cc1nc2cc(S(=O)(=O)N(C)c3ccc([C@H]4C[C@H](N5CCCC(F)(F)C5)C[C@@H](C(=O)Nc5ccc(C(F)(F)F)cc5F)[C@@H]4C(=O)O)cc3)ccc2n1C` (stereo in doubt) [Example 352, rel-(1R,2R,4S,6S)-4-(3,3-difluoropiperidin-1-yl)-2-((2-fluoro-4-(trifluoromethyl)phenyl)carbamoyl)-6-(4-((N,1,2-trimethyl-1H-benzo[d]imidazole)-5-sulfonamido)phenyl)cyclohexane-1-carboxylic acid], the CC50 was 3.98 µM in series [1] (setting [5]), 3.98 µM in series [1] (setting [6]) and 0.112 µM in series [2]. In series [3], the IC50 was 0.00398 µM. Besides, the fraction unbound at 4 h, 1 µM in series [4] was 0.028.

As for `Cc1nc2cc(S(=O)(=O)N(C)c3ccc([C@H]4C[C@@H](OCC5CCOCC5)C[C@@H](C(=O)Nc5ccc(C(F)(F)F)cc5F)[C@@H]4C(=O)O)cc3)ccc2n1C` (stereo in doubt) [Example 355, rel-(1R,2R,4R,6S)-2-((2-fluoro-4-(trifluoromethyl)phenyl)carbamoyl)-4-((tetrahydro-2H-pyran-4-yl)methoxy)-6-(4-((N,1,2-trimethyl-1H-benzo[d]imidazole)-5-sulfonamido)phenyl)cyclohexane-1-carboxylic acid], the CC50 was 0.1 µM in series [1] (setting [5]), 0.1 µM in series [1] (setting [6]) and 0.0129 µM in series [2]. For the same compound, the IC50 in series [3] is 0.00398 µM. Also, the fraction unbound at 4 h, 1 µM in series [4] amounted to 0.128.

On to `Cc1nc2cc(S(=O)(=O)N(C)c3ccc([C@@H]4C[C@@H](N5CCCC(F)(F)C5)C[C@H](C(=O)Nc5ccc(C(F)(F)F)cc5F)[C@H]4C(=O)O)cc3)ccc2n1C` (stereo in doubt) [Example 362, rel-(1R,2R,4S,6S)-4-(3,3-difluoropiperidin-1-yl)-2-((2-fluoro-4-(trifluoromethyl)phenyl)carbamoyl)-6-(4-((N,1,2-trimethyl-1H-benzo[d]imidazole)-5-sulfonamido)phenyl)cyclohexane-1-carboxylic acid], for which the CC50 was 10 µM in series [1] (setting [5]) and 1.7 µM in series [2]. The IC50 in series [3] is 1.58 µM. Also, the fraction unbound at 4 h, 1 µM in series [4] was 0.169.

For `Cc1nc2cc(S(=O)(=O)N(C)c3ccc([C@H]4C[C@@H](OCC5(C)COC5)C[C@@H](C(=O)Nc5ccc(C(F)(F)F)cc5F)[C@@H]4C(=O)O)cc3)ccc2n1C` (stereo in doubt) [Example 367, rel-(1R,2R,4R,6S)-2-((2-fluoro-4-(trifluoromethyl)phenyl)carbamoyl)-4-((3-methyloxetan-3-yl)methoxy)-6-(4-((N,1,2-trimethyl-1H-benzo[d]imidazole)-5-sulfonamido)phenyl)cyclohexane-1-carboxylic acid], the CC50 in series [1] (setting [5]) was 0.0794 µM; in series [1] (setting [6]), 0.0794 µM; in series [2], 0.0115 µM. Moreover, in series [3], the IC50 is 0.00158 µM. Moreover, in series [4], the fraction unbound at 4 h, 1 µM turned out to be 0.145.

As to `Cc1nc2cc(S(=O)(=O)N(C)c3ccc([C@H]4C[C@@H](N5CC[C@H](F)C5)C[C@@H](C(=O)Nc5ccc(C(F)(F)F)cc5F)[C@@H]4C(=O)O)cc3)ccc2n1C` (stereo in doubt) [Example 377, rel-(1R*,2R*,4R*,6S*)-2-((2-fluoro-4-(trifluoromethyl)phenyl)carbamoyl)-4-((S)-3-fluoropyrrolidin-1-yl)-6-(4-((N,1,2-trimethyl-1H-benzo[d]imidazole)-5-sulfonamido)phenyl)cyclohexane-1-carboxylic acid], the CC50 in series [1] (setting [5]) is 0.126 µM; in series [1] (setting [6]), 0.126 µM; in series [2] it was 0.00891 µM. The IC50 in series [3] is 0.00501 µM. In addition, in series [4], the fraction unbound at 4 h, 1 µM turned out to be 0.071.

Turning to `Cc1nc2cc(S(=O)(=O)N(C)c3ccc([C@@H]4C[C@H](N5CC[C@H](F)C5)C[C@H](C(=O)Nc5ccc(C(F)(F)F)cc5F)[C@H]4C(=O)O)cc3)ccc2n1C` (stereo in doubt) [Example 378, rel-(1R*,2R*,4R*,6S*)-2-((2-fluoro-4-(trifluoromethyl)phenyl)carbamoyl)-4-((S)-3-fluoropyrrolidin-1-yl)-6-(4-((N,1,2-trimethyl-1H-benzo[d]imidazole)-5-sulfonamido)phenyl)cyclohexane-1-carboxylic acid], the CC50 was 3.98 µM in series [1] (setting [5]), 3.98 µM in series [1] (setting [6]) and 0.832 µM in series [2]. Besides, the IC50 in series [3] is 0.0501 µM. Besides, in series [4], the fraction unbound at 4 h, 1 µM turned out to be 0.208.

With `Cc1nc2cc(S(=O)(=O)N(C)c3ccc([C@H]4C[C@H](N5CC[C@H](F)C5)C[C@@H](C(=O)Nc5ccc(C(F)(F)F)cc5F)[C@@H]4C(=O)O)cc3)ccc2n1C` (stereo in doubt) [Example 380, rel-(1R*,2R*,4S*,6S*)-2-((2-fluoro-4-(trifluoromethyl)phenyl)carbamoyl)-4-((S)-3-fluoropyrrolidin-1-yl)-6-(4-((N,1,2-trimethyl-1H-benzo[d]imidazole)-5-sulfonamido)phenyl)cyclohexane-1-carboxylic acid], the values for the CC50 in series [1] (setting [5]) and in series [2] were 10 µM and 0.331 µM, respectively. Moreover, in series [3], the IC50 is 0.0398 µM. The fraction unbound at 4 h, 1 µM in series [4] came to 0.0334.

With `Cc1nc2cc(S(=O)(=O)N(C)c3ccc([C@@H]4C[C@H](N5CC[C@@H](F)C5)C[C@H](C(=O)Nc5ccc(C(F)(F)F)cc5F)[C@H]4C(=O)O)cc3)ccc2n1C` (stereo in doubt) [Example 381, rel-(1R*,2R*,4R*,6S*)-2-((2-fluoro-4-(trifluoromethyl)phenyl)carbamoyl)-4-((R)-3-fluoropyrrolidin-1-yl)-6-(4-((N,1,2-trimethyl-1H-benzo[d]imidazole)-5-sulfonamido)phenyl)cyclohexane-1-carboxylic acid], the CC50 in series [1] (setting [5]) is 7.94 µM; in series [1] (setting [6]), 7.94 µM; in series [2], 2.45 µM. Besides, the IC50 in series [3] was 0.0794 µM. Moreover, the fraction unbound at 4 h, 1 µM in series [4] worked out at 0.308.

In the case of `Cc1nc2cc(S(=O)(=O)N(C)c3ccc([C@H]4C[C@@H](N5CC[C@@H](F)C5)C[C@@H](C(=O)Nc5ccc(C(F)(F)F)cc5F)[C@@H]4C(=O)O)cc3)ccc2n1C` (stereo in doubt) [Example 382, rel-(1R*,2R*,4R*,6S*)-2-((2-fluoro-4-(trifluoromethyl)phenyl)carbamoyl)-4-((R)-3-fluoropyrrolidin-1-yl)-6-(4-((N,1,2-trimethyl-1H-benzo[d]imidazole)-5-sulfonamido)phenyl)cyclohexane-1-carboxylic acid], the CC50 is 0.0631 µM in series [1] (setting [5]), 0.0631 µM in series [1] (setting [6]) and 0.00851 µM in series [2]. In addition, the IC50 in series [3] was 0.00158 µM. For the same compound, the fraction unbound at 4 h, 1 µM in series [4] turned out to be 0.136.

In the case of `Cc1nc2cc(S(=O)(=O)N(C)c3ccc([C@H]4C[C@H](N5CC[C@@H](F)C5)C[C@@H](C(=O)Nc5ccc(C(F)(F)F)cc5F)[C@@H]4C(=O)O)cc3)ccc2n1C` (stereo in doubt) [Example 383, rel-(1R*,2R*,4S*,6S*)-2-((2-fluoro-4-(trifluoromethyl)phenyl)carbamoyl)-4-((R)-3-fluoropyrrolidin-1-yl)-6-(4-((N,1,2-trimethyl-1H-benzo[d]imidazole)-5-sulfonamido)phenyl)cyclohexane-1-carboxylic acid], the CC50 in series [1] (setting [5]) was 7.94 µM; in series [1] (setting [6]), 7.94 µM; in series [2], 0.468 µM. The IC50 in series [3] is 0.00794 µM. Moreover, the fraction unbound at 4 h, 1 µM in series [4] was 0.0589.

`Cc1cc(N(C)S(=O)(=O)c2ccc3c(c2)nc(C)n3C)ccc1[C@H]1CCC[C@@H](C(=O)Nc2ccc(C(F)(F)F)cc2F)[C@@H]1C(=O)O` (stereo in doubt) [Example 386, rel-(1R,2R,6S)-2-((2-fluoro-4-(trifluoromethyl)phenyl)carbamoyl)-6-(2-methyl-4-((N,1,2-trimethyl-1H-benzo[d]imidazole)-5-sulfonamido)phenyl)cyclohexane-1-carboxylic acid]: the CC50 in series [1] (setting [5]) was 2 µM; in series [1] (setting [6]), 2 µM; in series [2] it was 0.2 µM. Besides, the IC50 in series [3] is 0.00398 µM. Besides, the fraction unbound at 4 h, 1 µM in series [4] amounted to 0.1.
